Measured values published in US20250032403A1, “COMPOSITIONS FOR TREATING PERIODONTAL DISEASES” (GR Biosystems, Inc., priority 2017, published 2025).
Entries after “also recorded” stand apart in the source; their conditions may differ.

Key:
[1] = test system: MMP-2; test: Western blot of MMP-2 protein expression in LPS-induced HGF-1 cells; type: cell-based, human; conditions: for MMP-2 production: HGF-1, LPS 5 μg/mL + curcumin 2.5, 5 or 10 μM, n=3, FIG. 15
Experimental: (§1) Human Gingival Fibroblasts (HGF-1) were purchased from ATCC (Manassas, VA) and were grown in DMEM with Glutamax, 10% FBS and Penicillin/Streptomycin (All from Gibco) and kept at 37° C. in a humidified air chamber with 5% CO2. Cells were seeded at 3×10^5 cells/flask for the experiments and then grown to confluency. Cells between 3 and 10 passages were used for all experiments.
(§2) 1,2,3,4,6-Penta-O-galloyl-β-D-glucose (purchased from Sigma-Aldrich) was dissolved in dimethylsulfoxide (DMSO) to obtain a 100 mM stock solution.
(§3) The supernatant was collected and assayed for protein concentration.
(§4) The gels were prepared by standard methods and electrophoresed for 1 hour at 150 V.
(§5) Incubation was done according to specific instructions from the manufacturer for each antibody. […] After incubation and washing with PBS-T, the membranes were incubated in the dark in blocking solution with 0.2% Tween, IRDye 800CW Goat anti-Rabbit IgG, and IRDye® 680RD Donkey anti-Mouse IgG (1:10000, LI-COR Biosciences, Lincoln, NE) for 1 hour at room temperature. The proteins were detected and visualized by fluorescence using the Licor Odyssey Classic Infrared Imaging system (LI-COR Biosciences, Lincoln, NE). Densitometry analysis of specific bands was performed with the Image Studio software provided by LI-COR Biosciences. Statistical analysis, including 1-way ANOVA with Dunnett's Multiple Comparison Test, was done using GraphPad Prism (GraphPad Software, La Jolla, CA).
Human gingival fibroblasts (HGF-1) were treated with lipopolysaccharide (LPS) from P. gingivalis to reproduce the type of inflammatory response seen in chronic periodontitis. Upon treatment with […], MMP-2 was released into the pericellular space to be activated by MMP-14. Subsequently, MMP-2 and MMP-14 activate MMP-13. […] LPS activation of MMP-2, MMP-13 and MMP-14, however, was attenuated by the administration of PGG.
(§6) HGF-1 cells were induced with LPS (5 μg/mL) to mimic the inflammatory process and Curcumin was added at different concentrations (2.5, 5 and 10 μM).

[2] = test system: MMP-13; test: Western blot of MMP-13 protein expression in LPS-induced HGF-1 cells; type: cell-based, human
Experimental: as §1, §2, §3, §4
as §5, with “Statistical analysis, including 1-way ANOVA with Dunnett's Multiple Comparison Test, was done using GraphPad Prism (GraphPad Software, La Jolla, CA).” left out

[3] = test system: MMP-14; test: Western blot of MMP-14 protein expression in LPS-induced HGF-1 cells; type: cell-based, human
Experimental: as §1, §2, §3, §4
as §5, with “Statistical analysis, including 1-way ANOVA with Dunnett's Multiple Comparison Test, was done using GraphPad Prism (GraphPad Software, La Jolla, CA).” left out

[4] = test system: MMP-3; test: Western blot of MMP-3 protein expression in LPS-induced HGF-1 cells; type: cell-based, human
Experimental: as §1, §2, §3, §4, §5
HGF-1 cells were treated with lipopolysaccharide (LPS, 5 μg/mL) from P. gingivalis in order to reproduce the type of inflammatory response seen in chronic periodontitis.
as §6

[5] = test system: MMP-9; test: Western blot of MMP-9 protein expression in LPS-induced HGF-1 cells; type: cell-based, human; conditions: FIG. 5
Experimental: as §1, §2, §3, §4
as §5, with “Statistical analysis, including 1-way ANOVA with Dunnett's Multiple Comparison Test, was done using GraphPad Prism (GraphPad Software, La Jolla, CA).” left out

[6] = test system: Human MMP-2; MMP2; test: Real time quantitative PCR of MMP-2 gene expression in HGF-1 cells; type: cell-based
Experimental: (§7) Gene expression of MMPs was evaluated after treatment under different conditions. The tissue culture was washed with PBS. […] All samples were treated with Qiagen DNase (Cat #79254).
(§8) Real time quantitative PCR was performed on an Applied Biosciences StepOne plus instrument and analyzed with StepOne software v2.3. The relative amounts of transcripts from each gene were normalized to reference gene GAPDH and calculated as follows: ΔΔCT=the average ΔCT of […]−the average ΔCT of […], and their fold difference=2^−ΔΔCT as previously described.

[7] = test system: MMP-9; test: Real time quantitative PCR of MMP-9 gene expression in HGF-1 cells; type: cell-based, human
Experimental: as §7, §8

[8] = test system: Human MMP-13; MMP13; test: Real time quantitative PCR of MMP-13 gene expression in HGF-1 cells; type: cell-based
Experimental: as §7, §8

[9] = test system: Human MMP-14; MMP14; test: Real time quantitative PCR of MMP-14 gene expression in HGF-1 cells; type: cell-based
Experimental: as §7, §8

[10] = test system: MMPs; test: Real time quantitative PCR of MMP gene expression (all MMPs tested) in HGF-1 cells; type: cell-based, human
Experimental: as §7, §8

[11] = test system: TNF-α; conditions: PBMCs, doses as low as 5 μM; cited from earlier work
[12] = test system: toll-like receptors 4 (TLR4); conditions: peritoneal and colonic macrophages; cited from earlier work
[13] = molecular target: T1, MyD88 adaptor protein (Mus musculus, UniProt P22366); conditions: peritoneal and colonic macrophages; cited from earlier work
T1 construct: host or cells: peritoneal and colonic macrophages
T1 sequence (P22366 whole entry): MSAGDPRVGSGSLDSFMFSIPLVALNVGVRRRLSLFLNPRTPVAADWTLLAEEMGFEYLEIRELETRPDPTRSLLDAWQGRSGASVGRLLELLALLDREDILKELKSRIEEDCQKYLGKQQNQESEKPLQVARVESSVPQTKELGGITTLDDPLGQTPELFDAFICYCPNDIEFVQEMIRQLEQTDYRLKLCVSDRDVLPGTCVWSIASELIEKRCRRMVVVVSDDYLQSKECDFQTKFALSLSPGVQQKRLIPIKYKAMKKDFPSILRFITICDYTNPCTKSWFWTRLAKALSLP

[14] = test system: TNF-α, IL-1β and IL-6; conditions: peritoneal and colonic macrophages; cited from earlier work
[15] = test system: TNF-α and IL-1β; conditions: peripheral blood mononuclear cells, PGG alone; cited from earlier work
[16] = HGF-1, LPS + PGG 25 μM (lowest dose tested), 48 hours
[17] = HGF-1, LPS + PGG 50-100 μM, FIG. 6
[18] = HGF-1, LPS 5 μg/mL + PGG 100 μM, p<0.05, n=3

With `O=C(OC[C@H]1O[C@@H](OC(=O)c2cc(O)c(O)c(O)c2)[C@H](OC(=O)c2cc(O)c(O)c(O)c2)[C@@H](OC(=O)c2cc(O)c(O)c(O)c2)[C@@H]1OC(=O)c1cc(O)c(O)c(O)c1)c1cc(O)c(O)c(O)c1` [PGG, 1,2,3,4,6-penta-O-galloyl-β-D-glucose] the “MMP-2 protein level after LPS treatment” value [1, 16] was “reduction of these three MMPs to basal levels of production”, the “MMP-2 levels compared to healthy control” value ([1]; HGF-1, PGG 100 μM, FIG. 1) was “reduced significantly; also recorded: lower than in healthy controls” and the “MMP-2 expression compared to healthy controls” value ([1]; HGF-1, simultaneously treated with LPS and increasing PGG concentrations, FIG. 1) was “not significantly different than in healthy controls”. For the same molecule, the “MMP-13 protein level after LPS treatment” value [2, 16] was “reduction of these three MMPs to basal levels of production”, the “MMP-13 expression in the PGG treated groups” value ([2]; HGF-1, LPS + PGG, FIG. 2) was “not significantly different than the healthy controls; also recorded: prevented upregulation of MMP-13 in a dose-dependent manner” and the “MMP-14 expression in the PGG treated groups” value ([3]; HGF-1, LPS 5 μg/mL + PGG, 48 hour, FIG. 3) was “not significantly different than the healthy controls; also recorded: not significantly different from healthy controls”. For the same molecule, the “MMP-14 protein level after LPS treatment” value [3, 16] was “reduction of these three MMPs to basal levels of production”, the MMP-3 protein level ([4]; HGF-1, LPS 5 μg/mL + PGG 25 μM, FIG. 4) was “comparable to healthy control values” and the MMP-3 protein level ([4]; HGF-1, LPS 5 μg/mL + PGG 50 and 100 μM, p<0.001, FIG. 4) was “further reduced MMP-3 to levels below basal production”. For the same molecule, the “MMP-9 protein level compared to LPS inflammatory control” value ([5]; HGF-1, LPS 5 μg/mL + PGG at a dose lower than 50 μM) was “decreased the MMP-9 level”, the “MMP-9 protein level, return to normal levels” value ([5]; HGF-1, LPS 5 μg/mL + PGG) was “did not return to normal levels until it was treated with at least 50 μM PGG” and the MMP-2 gene expression ([6]; HGF-1, LPS 5 μg/mL + PGG 100 μM, p<0.01, n=3, FIG. 6) was “decreased the expression of MMP-2 compared to treatment with PGG 25-50 μM, yet expression was still higher compared with healthy HGF-1”. For the same molecule, the “MMP-2 gene expression compared with LPS induction with or without PGG 25 μM” value [6, 17] was “reduced MMP-2, MMP-9, MMP-13, and MMP-14 expression”, the “MMP-9 gene expression compared with induction with LPS alone” value [7, 18] was “significantly reduced the expression of MMP-9, MMP-13 and MMP-14” and the “MMP-9 gene expression compared with LPS induction with or without PGG 25 μM” value [7, 17] was “reduced MMP-2, MMP-9, MMP-13, and MMP-14 expression”. For the same molecule, the “MMP-13 gene expression compared with induction with LPS alone” value [8, 18] was “significantly reduced the expression of MMP-9, MMP-13 and MMP-14”, the “MMP-13 gene expression compared with LPS induction with or without PGG 25 μM” value [8, 17] was “reduced MMP-2, MMP-9, MMP-13, and MMP-14 expression” and the “MMP-14 gene expression compared with induction with LPS alone” value [9, 18] was “significantly reduced the expression of MMP-9, MMP-13 and MMP-14”. The “MMP-14 gene expression compared with LPS induction with or without PGG 25 μM” value [9, 17] was “reduced MMP-2, MMP-9, MMP-13, and MMP-14 expression”, the MMP gene expression ([10]; HGF-1, LPS 5 μg/mL + PGG 25 μM, FIG. 6) was “did not vary gene expression in a significant manner” and the MPP gene expression ([10]; healthy HGF-1 (no LPS), PGG 100 μM) was “did not significantly change”. For the same molecule, the “suppression of LPS-induced TNF-α production” value [11] was no more than 90%, the “interference with the binding of LPS to TLR4” value [12] was “did not interfere” and the “interaction with MyD88 adaptor protein” value [13] was “interacted directly”. The “production of TNF-α, IL-1β and IL-6” value [14] was “decreasing the production” and the “cytokine production of PBMCs on treatment with PGG” value [15] was “resulted in the production of TNF-α and IL-1β”.
In the case of `COc1cc(/C=C/C(=O)CC(=O)/C=C/c2ccc(O)c(OC)c2)ccc1O` [curcumin, reference compound], the MMP-2 production [1] is reported as “not significantly different that the untreated HGF-1”, the MMP-2 production ([1]; listed as Curcumin) is reported as “decreased MMP-2 production” and the MMP-2 expression ([1]; HGF-1 treated with Curcumin 10 μM alone (no LPS), p>0.05, n=3) is reported as “not significantly different from untreated HGF-1”. For the same molecule, the MMP-3 production ([4]; HGF-1, LPS 5 μg/mL + curcumin 2.5, 5 and 10 μM, FIG. 16) was “decreased MMP-3 production”.
